In PubChem BioAssay (NCI):
Several values for one entry are separate records, joined by “and”; a condition that tells them apart may be missing. Equal entries are not always repeated.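 Briefly, cells in 96-well plates were exposed to five compound concentrations for 48 h, and endpoints were estimated by linear interpolation. The concentration for 50% growth inhibition is given as GI50. Definition used: TGI = concentration required for complete inhibition of growth.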

Experiments:
Experiment in all cases: growth of human tumour cells (NCI), 48 h
OVCAR-3 ovarian = tested on: OVCAR-3 ovarian
COLO 205 colon = tested on: COLO 205 colon
HOP-62 NSCLC = tested on: HOP-62 NSCLC
EKVX NSCLC = tested on: EKVX NSCLC
SF-268 CNS = tested on: SF-268 CNS
CCRF-CEM leukemia = tested on: CCRF-CEM leukemia
SF-539 CNS = tested on: SF-539 CNS
SK-MEL-2 melanoma = tested on: SK-MEL-2 melanoma
OVCAR-8 ovarian = tested on: OVCAR-8 ovarian
MALME-3M melanoma = tested on: MALME-3M melanoma

Row | SMILES | TGI (OVCAR-3 ovarian) | TGI (COLO 205 colon) | TGI (HOP-62 NSCLC) | TGI (EKVX NSCLC) | TGI (SF-268 CNS) | TGI (CCRF-CEM leukemia) | TGI (SF-539 CNS) | TGI (SK-MEL-2 melanoma) | TGI (OVCAR-8 ovarian) | TGI (MALME-3M melanoma) | GI50 (OVCAR-3 ovarian) | GI50 (COLO 205 colon) | GI50 (HOP-62 NSCLC) | GI50 (SF-268 CNS) | GI50 (CCRF-CEM leukemia) | GI50 (SF-539 CNS) | GI50 (SK-MEL-2 melanoma) | GI50 (OVCAR-8 ovarian) | GI50 (MALME-3M melanoma) | GI50 (EKVX NSCLC)
1 | Cc1cc2c(C)nn(Cc3ccc(Cl)cc3)c2c(C#N)c1C | > 100 µM | > 100 µM | > 100 µM | > 100 µM | > 100 µM | > 100 µM | > 100 µM | > 100 µM | > 100 µM | > 100 µM | – | – | – | – | – | – | – | – | – | –
2 | COc1ccc2c(c1)C(=O)c1c-2n(CCCI)c(=O)c2cc([N+](=O)[O-])ccc12 | 19.4 µM and 20.1 µM | 21.6 µM and 55.3 µM | 7.77 µM | 11.8 µM and > 100 µM | 44.4 µM and > 100 µM | – | 0.338 µM and 0.376 µM | 47.2 µM and > 100 µM | 50 µM and > 100 µM | 18.4 µM and 43.3 µM | 1.08 µM and 2.99 µM | 1.77 µM and 1.12 µM | 0.143 µM | 0.161 µM and 0.141 µM | 0.0254 µM and 0.0153 µM | 0.0962 µM and 0.0577 µM | 8.01 µM and 16.4 µM | 0.266 µM and 0.338 µM | 1.36 µM and 2.85 µM | –
3 | C=CC(Cl)(CBr)CCC(Br)C(C)(C)Cl (stereo not drawn) | 33.2 µM | 29.5 µM | 30.6 µM | 42.4 µM | 48.4 µM | 29 µM | 30.5 µM | 37.5 µM | 31.5 µM | 35.8 µM | – | – | – | – | – | – | – | – | – | –
4 | CC(C)(c1ccccc1)c1ccc(OC#N)cc1 | > 100 µM | > 56.5 µM | > 100 µM | > 100 µM | > 100 µM | > 76.3 µM | > 100 µM | > 100 µM | > 100 µM | > 100 µM | – | – | – | – | – | – | – | – | – | –
5 | NC(N)=NS(=O)(=O)c1ccc(Nc2c3ccccc3nc3c(C(=O)Nc4ccc(S(N)(=O)=O)cc4)cccc23)cc1 | > 100 µM | > 100 µM | > 100 µM | > 100 µM | > 100 µM | > 100 µM | > 100 µM | > 100 µM | > 100 µM | > 100 µM | – | – | – | – | – | – | – | – | – | –
6 | COC(=O)Nc1nc2ccc(Br)cc2[nH]1 | 82.5 µM | > 100 µM | > 100 µM | > 100 µM | > 100 µM | > 100 µM | 57.3 µM | 62.6 µM | > 100 µM | > 100 µM | – | – | – | – | – | – | – | – | – | –
7 | C=C(c1ccccc1)[C@@]1(O)CC[C@@H]1N(CC#N)Cc1ccccc1 | 17.1 µM | 30.4 µM | > 100 µM | > 88.9 µM | > 83.9 µM | 62.5 µM | 63.1 µM | 53.1 µM | 52.3 µM | 27.5 µM | – | – | – | – | – | – | – | – | – | –
8 | O=C1C(Cl)=C(NCc2ccco2)C(=O)c2ccccc21 | 19.4 µM | 26.4 µM | 43.6 µM | > 100 µM | 81.9 µM | > 100 µM | 54 µM | > 100 µM | > 100 µM | 4.37 µM | 4.93 µM | 9.11 µM | 17.1 µM | 22.5 µM | 9.88 µM | 20.9 µM | 35 µM | 22.5 µM | 2.03 µM | 37.3 µM
9 | Cn1cc(-c2ccc(-c3ccc(C4=NC5(CC5)C(=O)N4C[C@@H]4CCN(C(=O)C5CC5)C4)cc3)cc2)cn1 | 28.1 µM | 93.5 µM | > 100 µM | 55.8 µM | > 100 µM | 42.5 µM | 32.1 µM | > 100 µM | > 100 µM | 40.9 µM | 11.5 µM | 15.6 µM | 25.2 µM | 11.9 µM | 6.01 µM | 10.7 µM | 24.8 µM | 19.4 µM | 18.6 µM | 12.9 µM
10 | Cc1cn(-c2cc(NC(=O)c3ccc(C)c(Nc4nccc(-c5cccnc5)n4)c3)cc(C(F)(F)F)c2)cn1 | > 10 µM and 11.5 µM | 7.11 µM and 5.52 µM | > 10 µM and 26.3 µM | > 10 µM and 26.1 µM | > 10 µM and 15.2 µM | > 32.3 µM | > 10 µM and 31.9 µM | > 10 µM and 10.4 µM | > 10 µM and 24.8 µM | 5.04 µM and 4.1 µM | 5.77 µM and 4.38 µM | 1.58 µM and 1.23 µM | > 10 µM and 8.92 µM | 5.78 µM and 3.45 µM | > 10 µM and 1.25 µM | > 10 µM and 15.4 µM | 2.19 µM and 2.1 µM | 4.43 µM and 4.29 µM | 1.69 µM and 0.78 µM | 6.23 µM and 5.98 µM
11 | CSc1nc(SC)c2c(CO)c(Br)n(Cc3ccccc3)c2n1 | > 100 µM | > 100 µM | 80.1 µM | > 100 µM | 33.7 µM | > 100 µM | 29.1 µM | > 100 µM | 44.1 µM | > 100 µM | – | – | – | – | – | – | – | – | – | –
12 | CCN(CC)c1ccc(N=Nc2ccc(-c3nc4ccc[n+](C)c4o3)cc2)cc1 | 21.8 µM | 5.41 µM | 29.9 µM | 26.7 µM | 31.4 µM | 19.8 µM | 20.3 µM | 25.5 µM | 18.8 µM | 4.31 µM | – | – | – | – | – | – | – | – | – | –
13 | CCN(CC)C(=O)C(C)n1cc(C)c(=O)[nH]c1=O (stereo not drawn) | > 100 µM | > 100 µM | > 100 µM | > 100 µM | > 100 µM | > 100 µM | > 100 µM | > 100 µM | > 100 µM | > 100 µM | – | – | – | – | – | – | – | – | – | –
14 | N#CC1CCCCCCCCCCC(=O)N(CCCl)C1=O (stereo not drawn) | > 100 µM | > 100 µM | > 100 µM | > 100 µM | > 100 µM | > 100 µM | > 100 µM | > 100 µM | > 100 µM | > 100 µM | – | – | – | – | – | – | – | – | – | –
